Measurements reported in US8906852B2 (MethylGene Inc., priority 2010, dated 2014).

What follows are compounds tested against T1, VEGFR/KDR (Homo sapiens, UniProt P35968) (assay: VEGFR/KDR kinase inhibition, DELFIA assay). Details: ATP 0.6 uM (2x Km), enzyme 5 nM.
T1 construct: made in house; host or cells: Sf9 cells (Spodoptera frugiperda), baculovirus
Format: biochemical
Summary of the method: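 DELFIA time-resolved fluorescence readout using Europium-tagged anti-phosphotyrosine antibody after EDTA stop. Kinase reaction on plate-bound poly(Glu4,Tyr) ran 10-30 min at 30° C with 5 nM enzyme and 0.6 uM ATP (2× Km), following 4 min on-ice pre-incubation with compound; IC50 over a concentration range.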

T1 sequence (P35968 806-1356): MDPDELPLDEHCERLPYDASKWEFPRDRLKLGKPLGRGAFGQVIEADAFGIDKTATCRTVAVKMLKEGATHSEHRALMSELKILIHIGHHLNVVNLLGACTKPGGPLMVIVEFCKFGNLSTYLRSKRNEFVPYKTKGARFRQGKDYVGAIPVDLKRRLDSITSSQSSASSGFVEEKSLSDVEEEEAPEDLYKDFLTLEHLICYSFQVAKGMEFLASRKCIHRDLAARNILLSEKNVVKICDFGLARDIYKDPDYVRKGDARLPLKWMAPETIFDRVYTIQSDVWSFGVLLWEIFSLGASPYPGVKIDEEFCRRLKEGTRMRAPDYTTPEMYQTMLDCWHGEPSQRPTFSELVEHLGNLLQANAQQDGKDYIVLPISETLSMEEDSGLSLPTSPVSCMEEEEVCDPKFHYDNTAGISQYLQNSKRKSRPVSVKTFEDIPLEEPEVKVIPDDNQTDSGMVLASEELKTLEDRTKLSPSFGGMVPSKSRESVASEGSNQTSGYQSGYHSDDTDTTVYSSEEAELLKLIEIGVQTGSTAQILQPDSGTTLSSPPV

Row | Compound | IC50
1 | N-(4-(7-(4-(3-cyclopropylureido)-2-fluorophenoxy)thieno[3,2-b]pyridin-2-yl)benzyl)-2-(2-methoxyethoxy)-N-(2-methoxyethyl)acetamide [Compound 115] | < 50 nM
2 | COCCN(Cc1ccc(-c2cc3nccc(Oc4ccc(NC(=O)NC5CC5)nc4)c3s2)nc1)C(=O)CO [Compound 31, N-((6-(7-(6-(3-cyclopropylureido)pyridin-3-yloxy)thieno[3,2-b]pyridin-2-yl)pyridin-3-yl)methyl)-2-hydroxy-N-(2-methoxyethyl)acetamide] | 100 to 250 nM
3 | COCCN(Cc1ccc(-c2cc3nccc(Oc4ccc(NC(=O)NC5CC5)nc4)c3s2)nc1)C(C)=O [Compound 40, N-((6-(7-(6-(3-cyclopropylureido)-pyridin-3-yloxy)thieno[3,2-b]-pyridirin-2-yl)pyridin-3-yl)methyl)-N-(2-methoxyethyl)-acetamide] | 50 to 100 nM
4 | COCCOCCOCCOCCN(C)Cc1ccc(-c2cc3nccc(Oc4ccc(NC(=O)NC5CC5)cc4F)c3s2)nc1 [Compound 180, 1-cyclopropyl-3-(3-fluoro-4-(2-(5-(2-methyl-5,8,11,14-tetraoxa-2-azapentadecyl)pyridin-2-yl)thieno[3,2-b]pyridin-7-yloxy)phenyl)urea] | < 50 nM
5 | O=C(Nc1ccc(Oc2ccnc3cc(-c4ccc(CN5CCCN(C(=O)CO)CC5)cn4)sc23)c(F)c1)NC1CC1 [Compound 526, 1-cyclopropyl-3-(3-fluoro-4-(2-(5-((4-(2-hydroxyacetyl)-1,4-diazepan-1-yl)methyl)pyridin-2-yl)thieno[3,2-b]-pyridin-7-yloxy)phenyl)urea] | < 50 nM
6 | CN1CCN(C(=O)c2ccc(-c3cc4nccc(Oc5ccc(NC(=O)NC6CC6)cc5F)c4s3)nc2)CC1 [Compound 228, 1-cyclopropyl-3-(3-fluoro-4-(2-(5-(4-methylpiperazine-1-carbonyl)pyridin-2-yl)thieno[3,2-b]pyridin-7-yloxy)phenyl)urea] | < 50 nM
7 | CC1=C(/C=C/C(C)=C/C=C/C(C)=C/C(=O)N2CCN(Cc3ccc(-c4cc5nccc(Oc6ccc(NC(=O)NC7CC7)cc6F)c5s4)nc3)CC2)C(C)(C)CCC1 [Compound 548, 1-cyclopropyl-3-(4-(2-(5-((4-((2E,4E,6E,8E)-3,7-dimethyl-9-(2,6,6-trimethylcyclohex-1-enyl)nona-2,4,6,8-tetraenoyl)piperazin-1-yl)methyl)pyridin-2-yl)thieno[3,2-b]pyridin-7-yloxy)-3-fluorophenyl)urea] | ≥ 250 nM
8 | CC(C)NC(=O)Nc1ccc(Oc2ccnc3cc(-c4ncc(C(=O)N5CCCC5)n4C)sc23)c(F)c1 [Compound 223, 1-(3-fluoro-4-(2-(1-methyl-5-(pyrrolidine-1-carbonyl)-1H-imidazol-2-yl)thieno[3,2-b]pyridin-7-yloxy)phenyl)-3-isopropylurea] | 100 to 250 nM
9 | O=C(O)CCCN1CCN(Cc2ccc(-c3cc4nccc(Oc5ccc(NC(=O)NC6CC6)cc5F)c4s3)nc2)CC1 [Compound 519, 4-(4-((6-(7-(4-(3-cyclopropylureido)-2-fluorophenoxy)thieno[3,2-b]pyridin-2-yl)pyridin-3-yl)methyl)piperazin-1-yl)butanoic acid] | < 50 nM
10 | COCCNCc1ccc(-c2cc3nccc(Oc4ccc(NC(CC(=O)Nc5ccc(F)cc5)C(F)(F)F)cc4F)c3s2)nc1 (stereo not drawn) [Compound 20, 4,4,4-trifluoro-3-(3-fluoro-4-(2-(5-((2-methoxyethylamino)methy)pyridin-2-yl)thieno[3,2-b]pyridin-7-yloxy)phenylamino)-N-(4-fluorophenyl)butanamide] | < 50 nM
11 | O=C(O)CCCCCN1CCN(Cc2ccc(-c3cc4nccc(Oc5ccc(NC(=O)NC6CC6)cc5F)c4s3)nc2)CC1 [Compound 520, 6-(4-((6-(7-(4-(3-cyclopropylureido)-2-fluorophenoxy)thieno[3,2-b]pyridin-2-yl)pyridin-3-yl)methyl)piperazin-1-yl)hexanoic acid] | < 50 nM
12 | CC(C)(CN1CCN(C(=O)c2ccc(-c3cc4nccc(Oc5ccc(NC(=O)NC6CC6)cc5F)c4s3)nc2)CC1)C(=O)O [Compound 576] | < 50 nM
13 | COCCNCCn1cc(-c2cc3nccc(Oc4ccc(NC(=O)NC5CC5)cc4F)c3s2)cn1 [Compound 247, 1-cyclopropyl-3-(3-fluoro-4-(2-(1-(2-(2-methoxyethylamino)ethyl)-1H-pyrazol-4-yl)thieno[3,2-b]pyridin-7-yloxy)phenyl)urea] | < 50 nM
14 | COCCN(Cc1ccc(-c2cc3nccc(Oc4ccc(NC(=O)NC5CC5)cc4F)c3s2)cc1)C(=O)NC1CCCC1 [Compound 194, 1-(4-(7-(4-cyclopropylaminocarbonylamino-2-fluorophenoxy)thieno-[3,2-b]pyridin-2-yl)benzyl)-3-cyclopentyl-1-(2-methoxyethyl)urea] | < 50 nM

Now from value to compound:

Row | IC50 | Compound
15 | < 50 nM | CC(C)NC(=O)Nc1ccc(Oc2ccnc3cc(-c4ncc(C(=O)NCCN5CCOCC5)n4C)sc23)c(F)c1 [Compound 218, 2-(7-(2-fluoro-4-(3-isopropylureido)phenoxy)thieno[3,2-b]pyridin-2-yl)-1-methyl-N-(2-morpholinoethyl)-1H-imidazole-5-carboxamide]
16 | < 50 nM | O=C(Nc1ccc(Oc2ccnc3cc(C(=O)N4CCCCC4)sc23)c(F)c1)NC1CC1 [Compound 447]
17 | < 50 nM | O=C(Nc1ccc(Oc2ccnc3cc(-c4ccc(CN5CCC(C(=O)O)CC5)cn4)sc23)c(F)c1)NC1CC1 [Compound 62, l-((6-(7-(4-(3-cyclopropylureido)-2-fluorophenoxy)thieno[3,2-b]pyridin-2-yl)pyridin-3-yl)methyl)piperidine-4-carboxylic acid]
18 | < 50 nM | COCCN1CCN(Cc2ccc(-c3cc4nccc(Oc5ccc(NC(=O)NC6CC6)cc5F)c4s3)nc2)CC1 [Compound 56]
19 | < 50 nM | CC(=O)OCC(=O)N(C)C1CCN(Cc2ccc(-c3cc4nccc(Oc5ccc(NC(=O)NC6CC6)cc5F)c4s3)nc2)CC1 [Compound 411]
20 | < 50 nM | O=C(O)CCCNCc1ccc(-c2cc3nccc(Oc4ccc(NC(=O)NC5CC5)c(F)c4F)c3s2)nc1 [Compound 168, 4-((6-(7-(4-(3-cyclopropylureido)-2,3-difluorophenoxy)thieno[3,2-b]pyridin-2-yl)pyridin-3-yl)methylamino)butanoic acid]
21 | < 50 nM | CN(C)[C@H]1CCN(Cc2ccc(-c3cc4nccc(Oc5ccc(NC(=O)NC6CC6)cc5F)c4s3)nc2)C1 [Compound 54, (S)-1-cyclopropyl-3-(4-(2-(5-((3-(dimethylamino)pyrrolidin-1-yl)methyl)pyridin-2-yl)thieno[3,2-b]pyridin-7-yloxy)-3-fluorophenyl)urea]
22 | < 50 nM | O=C(Nc1ccc(Oc2ccnc3cc(-c4ccc(CN5CC(C(=O)O)C5)cn4)sc23)c(F)c1)NC1CC1 [Compound 477, 1-((6-(7-(4-(3-cyclopropylureido)-2-fluorophenoxy)thieno[3,2-b]pyridin-2-yl)pyridin-3-yl)methyl)azetidine-3-carboxylic acid]
23 | < 50 nM | COC(=O)CCN1CCN(Cc2ccc(-c3cc4nccc(Oc5ccc(NC(=O)NC6CC6)cc5F)c4s3)nc2)CC1 [Compound 507, methyl 3-(4-((6-(7-(4-(3-cyclopropylureido)-2-fluorophenoxy)thieno[3,2-b]pyridin-2-yl)pyridin-3-yl)methyl)piperazin-1-yl)propanoate]
24 | < 50 nM | COCCN(Cc1ccc(-c2cc3nccc(Oc4ccc(NC(=S)NC5CC5)cc4F)c3s2)nc1)C(C)=O [Compound 504, N-((6-(7-(4-(3-cyclopropylthioureido)-2-fluorophenoxy)thieno[3,2-b]pyridin-2-yl)pyridin-3-yl)methyl)-N-(2-methoxyethyl)acetamide]
25 | < 50 nM | CCNC(=O)NC1CN(Cc2ccc(-c3cc4nccc(Oc5ccc(NC(=O)NC6CC6)cc5F)c4s3)nc2)C1 [Compound 408]
26 | < 50 nM | O=C(O)CCN1CCN(Cc2ccc(-c3cc4nccc(Oc5ccc(NC(=O)NC6CC6)cc5F)c4s3)nc2)CC1 [Compound 70, 3-(4-((6-(7-(4-(3-cyclopropylureido)-2-fluorophenoxy)thieno[3,2-b]pyridin-2-yl)pyridin-3-yl)methyl)piperazin-1-yl)propanoic acid]
27 | < 50 nM | CNC1CCN(C(=O)c2ccc(-c3cc4nccc(Oc5ccc(NC(=O)NC6CC6)cc5F)c4s3)nc2)CC1 [Compound 399]
28 | < 50 nM | CN1CCN(C(=O)C2CCN(Cc3ccc(-c4cc5nccc(Oc6ccc(NC(=O)NC7CC7)cc6F)c5s4)nc3)CC2)CC1 [Compound 482, 1-cyclopropyl-3-(3-fluoro-4-(2-(5-((4-(4-methylpiperazine-1-carbonyl)piperidin-1-yl)methyl)pyridin-2-yl)thieno[3,2-b]pyridin-7-yloxy)phenyl)urea]
29 | < 50 nM | O=C(Cn1cc(-c2cc3nccc(Oc4ccc(NC(=O)NC5CC5)cc4F)c3s2)nn1)NCc1cccnc1 [Compound 381]
30 | < 50 nM | O=C(Nc1ccc(Oc2ccnc3cc(-c4ccc(CCN5CCCC5=O)cn4)sc23)c(F)c1)NC1CC1 [Compound 295, 1-cyclopropyl-3-(3-fluoro-4-(2-(5-(2-(2-oxopyrrolidin-1-yl)ethyl)pyridin-2-yl)thieno[3,2-b]pyridin-7-yloxy)phenyl)urea]
31 | < 50 nM | CN(C)CCNC(=O)[C@@H]1CCCN1Cc1ccc(-c2cc3nccc(Oc4ccc(NC(=O)NC5CC5)cc4F)c3s2)nc1 [Compound 487, (S)-1-((6-(7-(4-(3-cyclopropylureido)-2-fluorophenoxy)thieno[3,2-6]pyridin-2-yl)pyridin-3-yl)methyl)-N-(2-(dimethylamino)ethyl) pyrrolidine-2-carboxamide]
32 | < 50 nM | O=C(Nc1ccc(Oc2ccnc3cc(-c4ccc(CCN5CCOCC5)cn4)sc23)c(F)c1)NC1CC1 [Compound 178, 1-cyclopropyl-3-(3-fluoro-4-(2-(5-(2-morpholinoethyl)pyridin-2-yl)thieno[3,2-b]pyridin-7-yloxy)phenyl)urea]
33 | < 50 nM | CCNC(=O)N1CCN(Cc2ccc(-c3cc4nccc(Oc5ccc(NC(=O)NC6CC6)cc5F)c4s3)nc2)C[C@@H]1C [Compound 556]
